The results in this text go back to patent US11840686B2, “Modulation of prekallikrein (PKK) expression” (Ionis Pharmaceuticals, Inc., priority 2013, dated 2023).

Strand notation (5' to 3'): a small letter for the sugar, then the base; units joined by * are phosphorothioate-linked, units joined directly phosphodiester-linked; [ ] holds rarer units or linkages, { } end groups; capitals alone tell only the bases. e = 2'-O-(2-methoxyethyl) (MOE); [5mC] = 5-methylcytosine; d = 2'-deoxy (DNA)

For one data set, the system named is human PKK mRNA. Put plainly: Human PKK mRNA in liver of human KLKB1 transgenic mice (Example 7). It counts as in vivo. The conditions noted are these: transgenic mice. The gist of the method:
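Transgenic mice carrying a 37,390 bp human KLKB1 fragment dosed subcutaneously twice weekly for 3 weeks at 2.5, 5.0, 10 or 20 mg/kg/week; PBS controls. Liver harvested 48 h after the last dose. Human PKK mRNA measured by real-time PCR and expressed as % inhibition versus PBS.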

In the next data set the test system is mouse PKK mRNA. The data set can be described thus: Antisense inhibition of murine PKK mRNA in mouse primary hepatocytes (Example 9). The format is cell-based. The conditions noted are these: Cytofectin; for % inhibition of mouse PKK mRNA levels: approx. 24 hours. As for the experimental part: Antisense oligonucleotides targeting a murine PKK nucleic acid were designed and tested for their effects on PKK mRNA in vitro. Cultured mouse primary hepatocytes at a density of 10,000 cells per well were transfected using Cytofectin reagent with 12.5 nM, 25.0 nM, 50.0 nM, 100.0 nM, and 200.0 nM of antisense oligonucleotide. After a treatment period of approximately 24 hours, RNA was isolated from the cells and mouse PKK mRNA levels were measured by quantitative real-time PCR using the murine primer probe set RTS3313 (forward sequence […], designated herein as SEQ ID NO: 2228; reverse sequence […], designated herein as SEQ ID NO: 2229; probe sequence […], designated herein as SEQ ID NO: 2230). PKK mRNA levels were adjusted according to total RNA content, as measured by RIBOGREEN.
The chimeric antisense oligonucleotides were designed as 5-10-5 MOE gapmers. The gapmers are 20 nucleotides in length, wherein the central gap segment is comprised of ten 2′-deoxynucleosides and is flanked on both sides (in the 5′ and 3′ directions) by wings comprising 5 nucleosides each. Each nucleoside in the 5′ wing segment and each nucleoside in the 3′ wing segment has a 2′-O-methoxyethyl modification. The internucleoside linkages throughout each gapmer are phosphorothioate linkages. All cytosine residues throughout each gapmer are 5-methylcytosines.
ISIS 482584 is targeted to SEQ ID NO: 11 (GENBANK Accession No. NM_008455.2) and has a target start site of 1586 and a target stop site of 1605. “Target start site” indicates the 5′-most nucleotide to which the gapmer is targeted. “Target stop site” indicates the 3′-most nucleotide to which the gapmer is targeted.

Data set [1] relates to captopril-induced vascular permeability. Put plainly: Combination of PKK and Factor 12 antisense oligonucleotides on captopril-induced vascular permeability (Example 15). The format is in vivo, mouse. The settings on record: positive control: PBS + captopril 20 μg ip + HOE-140 30 μg ip. As for the experimental part:
Mice were treated varying doses of ISIS 410944, a 5-10-5 MOE gapmer targeting Factor 12 ([…]; SEQ ID NO: 2247), and ISIS 482584 in a captopril-induced vascular permeability model.
Group 1 consisted of 4 mice and was treated with PBS administered subcutaneously twice a week for 3 weeks. No other treatment was administered to Group 1 which served as a control group to measure the basal levels of vascular permeability.
Group 2 consisted of 8 mice and was treated with PBS administered subcutaneously twice a week for 3 weeks. At the end of the treatment period, the mice were intraperitoneally administered 20 μg of captopril.
Group 3 consisted of 4 mice and was treated with PBS administered subcutaneously twice a week for 3 weeks. At the end of the treatment period, the mice were intraperitoneally administered 20 μg of captopril. The mice were also intraperitoneally administered 30 μg of HOE-140. Group 3 served as a positive control for inhibition of captopril-induced vascular permeability.
Groups 4, 5, 6, 7, and 8 consisted of 8 mice each and were treated with 2.5 mg/kg, 5 mg/kg, 10 mg/kg, 20 mg/kg, or 40 mg/kg (corresponding to 5 mg/kg, 10 mg/kg, 20 mg/kg, 40 mg/kg, or 80 mg/kg per week), respectively of ISIS 482584 and ISIS 410944 each administered subcutaneously twice a week for 3 weeks. At the end of the treatment period, the mice of all the groups were intraperitoneally administered 20 μg of captopril. Groups 4-8 served as the experimental treatment groups for examining the effect of ISIS 410944 and ISIS 482584 on captopril-induced vascular permeability.
All the groups were then injected with 30 mg/kg of Evans Blue solution in the tail vein. The mice were sacrificed 30 min after the Evans Blue solution administration and colons, feet, ears, and intestines were harvested.
The harvested tissues from the feet, colon, and ears were placed in formamide solution overnight to leach out the Evans Blue dye. The formamide solution containing feet and ear tissue was heated to 55° C. and left overnight. Higher OD values are associated with higher levels of permeability.

Consider “Tes Ges mCes Aes Aes Gds Tds mCds Tds mCds Tds Tds Gds Gds mCds Aes Aes Aes mCes Ae [ISIS 546254]”, for which the “human PKK mRNA inhibition” value in the data set on human PKK mRNA (2.5 mg/kg/week s.c. twice a week for 3 weeks) worked out at 31%; in the data set with human PKK mRNA (5.0 mg/kg/week s.c. twice a week for 3 weeks), 55%; with human PKK mRNA (10 mg/kg/week s.c. twice a week for 3 weeks), 84%; in the data set with human PKK mRNA (20 mg/kg/week s.c. twice a week for 3 weeks), 83%.

For “ISIS 482584: 5-10-5 MOE gapmer targeting murine PKK, GGCATATTGGTTTTTGGAAT; SEQ ID NO: 2244 (antisense eG*eG*e[5mC]*eA*eT*dA*dT*dT*dG*dG*dT*dT*dT*dT*dT*eG*eG*eA*eA*eT)”, the “% inhibition of mouse PKK mRNA levels” value in the data set with mouse PKK mRNA (12.5 nM) was found to be 0%; in the data set with mouse PKK mRNA (25.0 nM), 47%; in the data set on mouse PKK mRNA (50.0 nM), 27%; in the data set on mouse PKK mRNA (100.0 nM) it was 60%; in the data set with mouse PKK mRNA (200.0 nM) it was 82%. Also, the IC50 in the data set on mouse PKK mRNA (12.5-200.0 nM, ~24 h, read-out: half maximal inhibitory concentration (IC50)) worked out at 84 nM.

Regarding `NC(N)=NCCC[C@@H](N)C(=O)N[C@@H](CCCN=C(N)N)C(=O)N1CCC[C@H]1C(=O)N1C[C@H](O)C[C@H]1C(=O)NCC(=O)N[C@@H](Cc1cccs1)C(=O)N[C@@H](CO)C(=O)N1Cc2ccccc2C[C@@H]1C(=O)N1[C@H](C(=O)N[C@@H](CCCN=C(N)N)C(=O)O)C[C@@H]2CCCC[C@@H]21` [HOE-140, Icatibant, reference compound], in data set [1], the “OD600 nm of Evans Blue dye, Colon” value amounted to 0.23; the “OD600 nm of Evans Blue dye, Ears” value came to 0.04; the “OD600 nm of Evans Blue dye, Feet” value is 0.06; the “OD600 nm of Evans Blue dye, Intestines” value is on record as 0.15.
